Point of comparison: `CC1(C)CC(O)CC(C)(C)N1CC#CCN1C(C)(C)CC(O)CC1(C)C`, melting point 203 °C. Against it:
- COc1cc(C(=O)C=Cc2ccccc2)ccc1O — lower, 61 to 64 °C
- CN1C(=O)SC(Cc2cn(-c3ccccc3)nc2O)C1=O (stereo not given) — higher, 233 to 234 °C
- c1ccc2c(c1)nc(NCCN1CCNCC1)c1c3ccccc3[nH]c21 — higher, 210 to 211 °C
- COc1cc(COC(=O)C2Cc3sccc3C(=O)N2Cc2cc(OC)c(OC)c(OC)c2)cc(OC)c1OC (stereo not given) — lower, 55 °C
- CCCc1c(OCCCOc2ccc3c(c2CCC)OC(C(=O)O)(C2CC2C(=O)O)CC3)ccc(C(C)=O)c1O (stereo not given) — lower, 138 to 140 °C
- CCc1ccc2c(c1)C=Cc1cc(C)ccc1C2c1cn(-c2nccc(C(=O)NCC(=O)O)n2)c(=O)[nH]c1=O (stereo not given) — lower, 195 to 198 °C
- Cn1nc(CNC(=O)c2ccccc2)nc1NCCCOc1cccc(CN2CCCCC2)c1 — lower, 70 °C
- O=C(O)CCCCCSC1c2ccccc2COc2ccc(OCc3ccc4ccc(Cl)cc4n3)cc21 (stereo not given) — lower, 160 to 166 °C
- O=C(CN1CS(=O)CC1=O)N1CCN(C(c2ccccc2)c2ccccc2)CC1 (stereo not given) — higher, 225 to 226 °C
- NCc1cccc(N2C(=O)N(c3ccccc3Br)Cc3cnc(Nc4ccccc4)nc32)c1 — lower, 121 °C
- COC(=O)c1cnc2n1CCc1ccccc1C2=C1CCN(CCc2ccc(OCc3ccc4ccccc4n3)cc2)CC1 — lower, 179 °C
- COCCCNCC(=O)Nc1ccc(C(=O)OC)cc1 — lower, 49 to 50 °C
- C=C(C)Oc1nc(NCCSCc2ccco2)ncc1Cc1ccc(C)nc1 — lower, 47 to 48 °C
- NS(=O)(=O)c1ccc(-c2nc(C(F)(F)F)[nH]c2-c2ccc(F)cc2)cc1 — higher, 259 to 260 °C
- O=C(NCc1ccc(Cl)cc1)c1cnc2c(I)cc(CO)cc2c1O — higher, 283 to 286 °C
- C=CCCCCCCCCN=C=O — lower, 94 to 97 °C
- CC(=O)Cn1cnc2c1c(=O)[nH]c(=O)n2C — not separable, < 295 °C
- O=C(CCCN1CCCC1=O)Nc1ncccc1C(=O)c1cccs1 — lower, 143 to 145 °C
- CC(n1cnc2cc(I)ccc2c1=O)C(O)(Cn1cncn1)c1ccc(F)cc1F (stereo not given) — lower, 155 to 156 °C
- CN(C)Cc1cc(CCCCCCCOc2ccc(C3=NCCO3)cc2)on1 — lower, 69.5 to 70 °C
- C=CCc1c(C)ccc(N2C(=O)c3ccccc3C2=O)c1OCc1ccccc1 — lower, 107 to 109 °C
- CCCCc1oc2ccc(C(N)=O)cc2c1C(=O)c1ccc(OCCCN(CCCC)CCCC)cc1 — lower, 90 to 92 °C
- NC(=O)CNCC(=O)NCCCO — lower, 118 to 120 °C
- O=C1c2ccccc2C(=O)N1CCCN(c1ccccc1)c1ccccn1 — lower, 103 to 105 °C
- CCCc1c(OCC(=O)OCC)ccc(C(C)=O)c1O — lower, 61 to 64 °C
- CC(Oc1ccc(Oc2ccc(C(F)(F)F)cc2Cl)cc1)C(=O)N1CCCO1 (stereo not given) — lower, 66.5 to 67.5 °C
- Cc1cc(=O)n2c3c(cc(C(O)(C(F)(F)F)C(F)(F)F)cc13)CCC2 — higher, 295 to 296 °C
- CCOC(=O)/C=C/c1ccc(C(C)(C)C)c([N+](=O)[O-])c1 — lower, 77 to 78 °C
- COc1cccc(C(=O)NCCc2ccc(-c3ccc(OC(C)(C)C(=O)O)cc3)cc2)c1 — lower, 117 °C
- CCOC(=O)COc1cc(F)c(-c2ncnc(C(F)(F)F)c2Cl)cc1[N+](=O)[O-] — lower, 127 to 129 °C
- O=C1COc2ccc(C3=Nn4cnnc4SC3c3ccccc3Cl)cc2N1 (stereo not given) — higher, 234 to 235 °C
- CCn1cc(C(=O)O)c(=O)c2cc(F)c(N3CCC3CN)nc21 (stereo not given) — lower, 198 to 200 °C
- CC(=O)OC1CSC(Oc2cccnc2N=CN(C)C)C(OC(C)=O)C1OC(C)=O (stereo not given) — lower, 120 °C
- CNc1c(F)c(F)c(F)c2c1c(=O)c(C(=O)O)cn2C1CC1 — higher, 205 to 207 °C
- CCOC(=O)C1=C(N)N=C(SCC)C(C(=O)OCC)C1c1ccncc1 (stereo not given) — lower, 156 °C
- COc1ccn2nc(-c3ccccc3)c(-c3ccc(=O)n(C(C)C)n3)c2c1 — lower, 180 to 182 °C
- CCOc1ccccc1C(C)CC(=O)Nc1sc2c(c1C#N)CCNC2 (racemic) — lower, 111 to 115 °C
- CCCC(=O)NN=Cc1ccnc2ccccc12 — lower, 130 °C
- Cc1[nH]cnc1CSCCNC(=S)NC#N — lower, 158 to 161 °C
- O=C(NCC1Cc2cccc(-c3ccc(C(F)(F)F)cc3)c2O1)OCc1ccccc1 (stereo not given) — lower, 100 to 102 °C
- N#Cc1cnc(Nc2ccc(OCCn3ccnn3)cc2)nc1-c1ccccc1 — lower, 178 °C
- COc1ccc2c(c1)CCC1C3CC4OCCOC4C3(C)CCC21C (stereo not given) — lower, 115 °C
- COc1cc(-c2cccs2)ccc1C(=O)C=Cc1ccc(F)c(F)c1 — lower, 73 to 79 °C
- COC1(c2cccc(Sc3cc(C)c4c(ccc(=O)n4C)c3)c2)CCOCC1 — lower, 101 to 102 °C
- CCCc1c(C(=O)C2CCCC2)c2ccc(C(N)=O)cc2n1Cc1ccccc1Cl — lower, 202 °C
- CCc1nc(-c2ccc(OCCCc3cccnc3)cc2)no1 — lower, 63 to 64 °C
- NC(CO)COc1ccc(Oc2ccccc2)cc1 (stereo not given) — lower, 61.9 °C
- CC(=O)NNC(=N)CCCCn1cnc(NC(N)=NCC(F)(F)F)n1 — lower, 157 to 159 °C
- CC(C)(C)OC(=O)N1CCC[C@@H](OC(=O)Nc2ccc(Cl)cc2)C1 — lower, 160 to 161 °C
